Reference: ChEMBL document CHEMBL6134860, “Discovery and optimization of a novel carboxamide scaffold with selective antimalarial activity” (Eur J Med Chem, 2025)

Key:
[1] = test system: Plasmodium falciparum; experiment: microbe, parasite or virus in culture; type: functional, organism-based; conditions: W2, 72 h
[2] = Cytotoxicity against human HepG2 cells measured after 72 hrs by hoechst 33342 staining based imaging assay; type: toxicity, cell-based

| SMILES | EC50 ([1]; read-out: EC50) | EC50 ([1]; read-out: pEC50 (converted)) | CC50 at 72 h ([2]; read-out: CC50) | CC50 at 72 h ([2]; read-out: pCC50 (converted)) |
| --- | --- | --- | --- | --- |
| O=C1c2sc(-c3ccc(Cl)cc3)nc2CN1c1ccc(Cl)cc1 | > 10 µM | > 10 µM | > 10 µM | > 10 µM |
| CN(C(=O)c1cnc(-c2ccc(Cl)cc2)o1)c1ccc(Cl)cc1 | > 10 µM | > 10 µM | > 10 µM | > 10 µM |
| Cc1ccc(N(C)C(=O)c2ncn(-c3ccc(Cl)cc3)n2)cc1C | – | 2.34 µM | > 10 µM | > 10 µM |
| COc1ccc(N(C)C(=O)c2ncn(-c3ccc(C)cc3)n2)cc1 | > 4.11 µM | > 4.07 µM | > 10 µM | > 10 µM |
| CN(C(=O)c1ncn(-c2ccc(Cl)cc2)n1)c1ccc(C(C)(C)C)cc1 | > 8.03 µM | > 7.94 µM | > 1.76 µM | > 1.78 µM |
| CN(C(=O)c1ncn(-c2ccc(Cl)cc2)n1)c1ccc([N+](=O)[O-])cc1 | – | 2.29 µM | > 10 µM | > 10 µM |
| O=C(c1ccc(Cl)cc1)c1ncc(-c2ccc(Cl)cc2)o1 | > 10000 µM | > 10 µM | > 10 µM | > 10 µM |
| Cc1cccc(N(C)C(=O)c2ncn(-c3ccc(Cl)cc3)n2)c1 | > 4.03 µM | > 4.07 µM | > 10 µM | > 10 µM |
| CC(=O)c1ccc(NC(=O)c2ncn(-c3ccc(Cl)cc3)n2)cc1 | > 10 µM | > 10 µM | > 10 µM | > 10 µM |
| Cc1cccc(N(C)C(=O)c2ncn(-c3ccc(C(C)C)cc3)n2)c1 | > 3.33 µM | > 3.31 µM | > 10 µM | > 10 µM |
| CN(C(=O)c1cnc(-c2ccc(Cl)cc2)[nH]1)c1ccc(Cl)cc1 | > 2.26 µM | > 2.24 µM | > 10 µM | > 10 µM |
| CCc1ccc(-n2cnc(C(=O)N(C)c3cccc(C)c3)n2)cc1 | > 4.26 µM | > 4.27 µM | > 10 µM | > 10 µM |
| Cc1ccc(-n2cnc(C(=O)N(C)c3ccc(C)c(C)c3)n2)cc1 | > 6.93 µM | > 6.92 µM | > 10 µM | > 10 µM |
| O=C(Nc1ccc(F)cc1)c1ncn(-c2ccc(Cl)cc2)n1 | > 5.88 µM | > 5.89 µM | > 10 µM | > 10 µM |
| Cc1ccc(N(C)C(=O)c2ncn(-c3ccc(C(C)C)cc3)n2)cc1C | > 3.86 µM | > 3.89 µM | > 10 µM | > 10 µM |
| CCc1ccc(N(C)C(=O)c2ncn(-c3ccc(Cl)cc3)n2)cc1 | > 5.24 µM | > 5.25 µM | > 10 µM | > 10 µM |
| COc1ccc(-n2cnc(C(=O)N(C)c3ccc(Cl)cc3)n2)cc1 | > 3.86 µM | > 3.89 µM | > 10 µM | > 10 µM |
| Cc1ccc(C(=O)N(C)c2ncn(-c3ccc(C)cc3)n2)cc1 | > 3.38 µM | > 3.39 µM | > 10 µM | > 10 µM |
| O=C(Nc1ccc(Cl)c(Cl)c1)c1ncn(-c2ccc(Cl)cc2)n1 | > 10 µM | > 10 µM | > 10 µM | > 10 µM |
| Cc1ccc(NC(=O)c2ncn(-c3ccc(Cl)cc3)n2)cc1C | > 2.89 µM | > 2.88 µM | > 10 µM | > 10 µM |
| COc1ccc(N(C)C(=O)c2ncn(-c3ccc(OC)cc3)n2)cc1 | > 10 µM | > 10 µM | > 10 µM | > 10 µM |

| SMILES | EC50 ([1]; read-out: EC50) | EC50 ([1]; read-out: pEC50 (converted)) | CC50 at 72 h ([2]; read-out: CC50) | CC50 at 72 h ([2]; read-out: pCC50 (converted)) |
| --- | --- | --- | --- | --- |
| CN(C(=O)c1ncn(-c2ccc(Cl)cc2)n1)c1ccc(F)cc1 | – | 1.78 µM | > 10 µM | > 10 µM |
| CN(C(=O)c1cc(-c2ccc(Cl)cc2)ccn1)c1ccc(Cl)cc1 | 0.169 µM | 0.17 µM | – | – |
| Cc1ccc(-n2cnc(C(=O)N(C)c3cccc(C)c3)n2)cc1 | > 2.82 µM | > 2.82 µM | > 10 µM | > 10 µM |
| CN(C(=O)c1ncn(-c2ccc(Cl)cc2)n1)c1ccc(Cl)cc1 | – | 0.525 µM | > 10 µM | > 10 µM |
| CN(C(=O)c1cnc(-c2ccc(Cl)cc2)s1)c1ccc(Cl)cc1 | > 10 µM | > 10 µM | > 10 µM | > 10 µM |
| O=C(c1ccc(Cl)cc1)c1cc(-c2ccc(Cl)cc2)ccn1 | > 10000 µM | > 10 µM | > 10 µM | > 10 µM |
| Cc1ccc(-n2cnc(NC(=O)c3ccc(Cl)cc3)n2)cc1 | > 2.99 µM | > 3.02 µM | > 10 µM | > 10 µM |
| Cc1ccc(N(C)C(=O)c2cn(-c3ccc(C)cc3)nn2)cc1 | > 10 µM | > 10 µM | > 10 µM | > 10 µM |
| O=C(Nc1ccc(Cl)cc1)c1ncn(-c2ccc(Cl)cc2)n1 | > 6.44 µM | > 6.46 µM | > 10 µM | > 10 µM |
| O=C(Nc1ccc(C(F)(F)F)cc1)c1ncn(-c2ccc(Cl)cc2)n1 | > 6.44 µM | > 6.46 µM | > 10 µM | > 10 µM |
| CN(C(=O)c1cn(-c2ccc(Cl)cc2)nn1)c1ccc(Cl)cc1 | > 10 µM | > 10 µM | > 10 µM | > 10 µM |
| Cc1ccc(-c2ncc(C(=O)N(C)c3ccc(Cl)cc3)s2)cc1 | > 10 µM | > 10 µM | > 10 µM | > 10 µM |
| Cc1ccc(-n2cnc(N(C)C(=O)c3ccc(Cl)cc3)n2)cc1 | > 1.8 µM | > 1.82 µM | > 10 µM | > 10 µM |
| CN(C(=O)c1ncc(-c2ccc(Cl)cc2)[nH]1)c1ccc(Cl)cc1 | > 7.09 µM | > 7.08 µM | > 10 µM | > 10 µM |
| Cc1ccc(-c2nc(C)c(C(=O)N(C)c3ccc(Cl)cc3)s2)cc1 | > 4.78 µM | > 4.79 µM | > 10 µM | > 10 µM |
| O=C(Nc1ccc(-c2cc3ccccc3oc2=O)cc1)c1cccc2ccccc12 | > 4.05 µM | > 4.07 µM | 1.16 µM | 1.15 µM |
| CN(C(=O)c1ccc(Cl)cc1)c1ncn(-c2ccc(Cl)cc2)n1 | > 1.52 µM | > 1.51 µM | > 10 µM | > 10 µM |
| Cc1ccc(-n2cnc(C(=O)N(C)c3ccc(Cl)cc3)n2)cc1 | 1.68 µM | 1.7 µM | > 10 µM | > 10 µM |
| COc1ccc(-n2cnc(C(=O)N(C)c3cccc(C)c3)n2)cc1 | > 5.77 µM | > 5.75 µM | > 10 µM | > 10 µM |
| Cc1ccc(-n2cnc(C(=O)Nc3ccc(Cl)cc3)n2)cc1 | > 10 µM | > 10 µM | > 10 µM | > 10 µM |
| COc1ccc(N(C)C(=O)c2ncn(-c3ccc(Cl)cc3)n2)cc1 | – | 1.91 µM | > 10 µM | > 10 µM |

| SMILES | EC50 ([1]; read-out: EC50) | EC50 ([1]; read-out: pEC50 (converted)) | CC50 at 72 h ([2]; read-out: CC50) | CC50 at 72 h ([2]; read-out: pCC50 (converted)) |
| --- | --- | --- | --- | --- |
| Cc1nc(-c2ccc(Cl)cc2)sc1C(=O)N(C)c1ccc(Cl)cc1 | > 10 µM | > 10 µM | > 10 µM | > 10 µM |
| Cc1nc(-c2ccc(Cl)cc2)oc1C(=O)N(C)c1ccc(Cl)cc1 | > 4.34 µM | > 4.37 µM | > 10 µM | > 10 µM |
| Cc1ccc(-n2cc(C(=O)N(C)c3ccc(Cl)cc3)nn2)cc1 | > 10 µM | > 10 µM | > 10 µM | > 10 µM |
| COc1ccc(-n2cnc(C(=O)N(C)c3ccc(C)c(C)c3)n2)cc1 | > 10 µM | > 10 µM | > 10 µM | > 10 µM |
| CN(C(=O)c1ncn(-c2ccc(Cl)cc2)n1)c1ccccc1 | > 13.8 µM | > 13.8 µM | > 10 µM | > 10 µM |
| Cc1ccc(-c2cnc(C(=O)N(C)c3ccc(Cl)cc3)s2)cc1 | > 10 µM | > 10 µM | > 10 µM | > 10 µM |
| CC(=O)c1ccc(N(C)C(=O)c2ncn(-c3ccc(Cl)cc3)n2)cc1 | – | 2.4 µM | > 10 µM | > 10 µM |
| CCc1ccc(NC(=O)c2ncn(-c3ccc(Cl)cc3)n2)cc1 | > 6.93 µM | > 6.92 µM | > 10 µM | > 10 µM |
| [2H]C([2H])([2H])N(C(=O)c1ncc(-c2ccc(Cl)cc2)o1)c1ccc(Cl)cc1 | 388 µM | 0.389 µM | – | – |
| CN(C(=O)c1ncn(-c2ccc(Cl)cc2)n1)c1ccc(C(F)(F)F)cc1 | – | 3.8 µM | > 6.93 µM | > 6.92 µM |
| Cc1ccc(N(C)C(=O)c2cn(-c3ccc(Cl)cc3)nn2)cc1 | > 10 µM | > 10 µM | > 10 µM | > 10 µM |
| CN(C(=O)c1ncc(-c2ccc(Cl)cc2)s1)c1ccc(Cl)cc1 | > 6.75 µM | > 6.76 µM | > 10 µM | > 10 µM |
| Cc1ccc(-c2nc(C)c(C(=O)N(C)c3ccc(Cl)cc3)o2)cc1 | > 8.87 µM | > 8.91 µM | > 10 µM | > 10 µM |
| CN(C(=O)c1cncc(-c2ccc(Cl)cc2)c1)c1ccc(Cl)cc1 | – | – | > 10 µM | > 10 µM |
| O=C(Nc1ccc([N+](=O)[O-])cc1)c1ncn(-c2ccc(Cl)cc2)n1 | > 10 µM | > 10 µM | > 10 µM | > 10 µM |
| Cc1ccc(-c2ncc(C(=O)N(C)c3ccc(Cl)cc3)o2)cc1 | > 10 µM | > 10 µM | > 10 µM | > 10 µM |
| Cc1ccc(-c2cnc(C(=O)N(C)c3ccc(Cl)cc3)[nH]2)cc1 | > 10 µM | > 10 µM | > 10 µM | > 10 µM |
| CN(C(=O)c1ncn(-c2ccc(Cl)cc2)n1)c1ccc(Cl)c(Cl)c1 | – | 0.933 µM | > 10 µM | > 10 µM |
| Cc1ccc(C(=O)Nc2ncn(-c3ccc(Cl)cc3)n2)cc1 | > 10 µM | > 10 µM | > 10 µM | > 10 µM |
